Results taken from article PMC8115619, “Generation of a chemical genetic model for JAK3” (Scientific Reports, 2021).

Experiments:
[1] = system: IL-4 induced STAT6 phosphorylation in JAK3 Cys905Ser knockin BMDMs; assay: Inhibitor washout, IL-4 induced STAT6 phosphorylation, JAK3 Cys905Ser knockin BMDMs; assay type: cell-based, mouse; conditions: inhibitor 2 h, washed 3 times in PBS; 10 μM TL6-144, 100 μM PF-06651600
Description: To test this, cells were treated with a high concentration of inhibitor for 2 h before being washed 3 times in PBS and then incubated in media without inhibitor for 0.5 to 24 h. […] To confirm this was not the case, similar experiments were done in JAK3 Cys905Ser knockin cells.
BMDMs were isolated from wild type and JAK3 Cys905Ser knockin mice. […] The macrophages were then either stimulated with 10 ng/ml IL-4 for 30 min or washed 3 times in PBS and then incubated in media without inhibitor for the indicated times. The cells were then stimulated with IL-4 for 30 min and STAT6 phosphorylation determined by immunoblotting using levels of ERK1/2 as a loading control.
Briefly, bone marrow was flushed in PBS from the femurs and tibias of mice. Cells were cultured on bacterial grade plastic for 7 days at 37 °C, 5% CO2. […]
Cells were lysed directly into SDS sample buffer and aliquots run on 10% polyacrylamide gels using standard methods[51]. Proteins were transferred onto nitrocellulose membranes, and specific proteins were detected by immunoblotting. […] Bands were detected using Clarity ECL reagents from BioRad and imaged on a Licor Odyssey Fc system. Quantification was carried out using Licor Image Studio software. After correction for the ERK1/2 levels to account for loading differences, percentage inhibition was calculated relative to the IL-4 stimulated condition.

EPH-B3 = EPH-B3 (Homo sapiens, UniProt P54753); assay: Selectivity screen EPH-B3; assay type: biochemical; conditions: 1 µM inhibitor, mean
Description: (§1) For the in vitro kinase assay, JAK3 (5–20 mU diluted in 50 mM Tris pH 7.5, 0.1 mM EGTA, 0.05% β-mercaptoethanol, 1 mg/ml BSA) was assayed against PDKtide ([…]) in a final volume of 25.5 µl containing 50 mM Tris pH 7.5, 0.1 mM EGTA, 0.05% β-mercaptoethanol, 100 µM substrate peptide, 10 mM magnesium acetate and 0.02 mM [33P-γ-ATP] (50–1000 cpm/pmole) and incubated for 30 min at room temperature. Assays were started by the addition of the ATP and stopped by addition of 5 µl of 0.5 M (3%) orthophosphoric acid and then harvested onto P81 Unifilter plates with a wash buffer of 50 mM orthophosphoric acid. To determine the Km for ATP, assays were run using 1, 5, 10, 20, 50, 100, 200, 400, 500 μM ATP and Km derived by non-linear regression fitting to the Michaelis–Menten equation v = Vmax[S]/(Km + [S]). IC50 values for inhibitors via non-linear regression using a parameter model: Y = Bottom + (Top–Bottom)/(1 + (IC50/X)^HillSlope). Non-linear regression was carried out in Prism (version 8). In vitro selectivity screen was carried out as described previously.

IRR = IRR (Homo sapiens, UniProt P14616); assay: Selectivity screen IRR; assay type: biochemical; conditions: 1 µM inhibitor, mean
Description: as §1

RSK2 = RSK2 (Homo sapiens, UniProt P51812); assay: Selectivity screen RSK2; assay type: biochemical; conditions: 1 µM inhibitor, mean
Description: as §1

RSK1 = RSK1 (Homo sapiens, UniProt Q15418); assay: Selectivity screen RSK1; assay type: biochemical; conditions: 1 µM inhibitor, mean
Description: as §1

Src = Src (Homo sapiens, UniProt P12931); assay: Selectivity screen Src; assay type: biochemical; conditions: 1 µM inhibitor, mean
Description: as §1

NUAK1 = NUAK1 (Homo sapiens, UniProt O60285); assay: Selectivity screen NUAK1; assay type: biochemical; conditions: 1 µM inhibitor, mean
Description: as §1

CDK9-Cyclin T1 = CDK9-Cyclin T1 (Homo sapiens, UniProt P50750); assay: Selectivity screen CDK9-Cyclin T1; assay type: biochemical; conditions: 1 µM inhibitor, mean
Description: as §1

BRK = BRK (Homo sapiens, UniProt Q13882); assay: Selectivity screen BRK; assay type: biochemical; conditions: 1 µM inhibitor, mean
p38g MAPK = p38g MAPK (Homo sapiens, UniProt P53778); assay: Selectivity screen p38g MAPK; assay type: biochemical; conditions: 1 µM inhibitor, mean
Description: as §1

MAPKAP-K3 = MAPKAP-K3 (Homo sapiens, UniProt Q16644); assay: Selectivity screen MAPKAP-K3; assay type: biochemical; conditions: 1 µM inhibitor, mean
Description: as §1

PDK1 = PDK1 (Homo sapiens, UniProt O15530); assay: Selectivity screen PDK1; assay type: biochemical; conditions: 1 µM inhibitor, mean
Description: as §1

DDR2 = DDR2 (Homo sapiens, UniProt Q16832); assay: Selectivity screen DDR2; assay type: biochemical; conditions: 1 µM inhibitor, mean
Description: as §1

RIPK2 = RIPK2 (Homo sapiens, UniProt O43353); assay: Selectivity screen RIPK2; assay type: biochemical; conditions: 1 µM inhibitor, mean
Description: as §1

MARK4 = MARK4 (Homo sapiens, UniProt Q96L34); assay: Selectivity screen MARK4; assay type: biochemical; conditions: 1 µM inhibitor, mean
Description: as §1

TTBK1 = TTBK1 (Homo sapiens, UniProt Q5TCY1); assay: Selectivity screen TTBK1; assay type: biochemical; conditions: 1 µM inhibitor, mean
Description: as §1

GCK = GCK (Homo sapiens, UniProt Q12851); assay: Selectivity screen GCK; assay type: biochemical; conditions: 1 µM inhibitor, mean
Description: as §1

SRPK1 = SRPK1 (Homo sapiens, UniProt Q96SB4); assay: Selectivity screen SRPK1; assay type: biochemical; conditions: 1 µM inhibitor, mean
Description: as §1

HIPK1 = HIPK1 (Homo sapiens, UniProt Q86Z02); assay: Selectivity screen HIPK1; assay type: biochemical; conditions: 1 µM inhibitor, mean
Description: as §1

CLK2 = CLK2 (Homo sapiens, UniProt P49760); assay: Selectivity screen CLK2; assay type: biochemical; conditions: 1 µM inhibitor, mean
Description: as §1

STK33 = STK33 (Homo sapiens, UniProt Q9BYT3); assay: Selectivity screen STK33; assay type: biochemical; conditions: 1 µM inhibitor, mean
Description: as §1

TIE2 = TIE2 (Homo sapiens, UniProt Q02763); assay: Selectivity screen TIE2; assay type: biochemical; conditions: 1 µM inhibitor, mean
Description: as §1

HIPK2 = HIPK2 (Homo sapiens, UniProt Q9H2X6); assay: Selectivity screen HIPK2; assay type: biochemical; conditions: 1 µM inhibitor, mean
Description: as §1

IGF-1R = IGF-1R (Homo sapiens, UniProt P08069); assay: Selectivity screen IGF-1R; assay type: biochemical; conditions: 1 µM inhibitor, mean
Description: as §1

EPH-B1 = EPH-B1 (Homo sapiens, UniProt P54762); assay: Selectivity screen EPH-B1; assay type: biochemical; conditions: 1 µM inhibitor, mean
Description: as §1

MELK = MELK (Homo sapiens, UniProt Q14680); assay: Selectivity screen MELK; assay type: biochemical; conditions: 1 µM inhibitor, mean
Description: as §1

WNK1 = WNK1 (Homo sapiens, UniProt Q9H4A3); assay: Selectivity screen WNK1; assay type: biochemical; conditions: 1 µM inhibitor, mean
Description: as §1

BRSK1 = BRSK1 (Homo sapiens, UniProt Q8TDC3); assay: Selectivity screen BRSK1; assay type: biochemical; conditions: 1 µM inhibitor, mean
IKKb = IKKb (Homo sapiens, UniProt O14920); assay: Selectivity screen IKKb; assay type: biochemical; conditions: 1 µM inhibitor, mean
Description: as §1

PDGFRA = PDGFRA (Homo sapiens, UniProt P16234); assay: Selectivity screen PDGFRA; assay type: biochemical; conditions: 1 µM inhibitor, mean
Description: as §1

p38d MAPK = p38d MAPK (Homo sapiens, UniProt O15264); assay: Selectivity screen p38d MAPK; assay type: biochemical; conditions: 1 µM inhibitor, mean
Description: as §1

SmMLCK = SmMLCK (Homo sapiens, UniProt Q15746); assay: Selectivity screen SmMLCK; assay type: biochemical; conditions: 1 µM inhibitor, mean
Description: as §1

MKK2 = MKK2 (Homo sapiens, UniProt P36507); assay: Selectivity screen MKK2; assay type: biochemical; conditions: 1 µM inhibitor, mean
Description: as §1

PKCγ = PKCγ (Homo sapiens, UniProt P05129); assay: Selectivity screen PKCγ; assay type: biochemical; conditions: 1 µM inhibitor, mean
Description: as §1

MNK1 = MNK1 (Homo sapiens, UniProt Q9BUB5); assay: Selectivity screen MNK1; assay type: biochemical; conditions: 1 µM inhibitor, mean
Description: as §1

CK1δ = CK1δ (Homo sapiens, UniProt P48730); assay: Selectivity screen CK1δ; assay type: biochemical; conditions: 1 µM inhibitor, mean
Description: as §1

EPH-B3, sequence (P54753 34-998): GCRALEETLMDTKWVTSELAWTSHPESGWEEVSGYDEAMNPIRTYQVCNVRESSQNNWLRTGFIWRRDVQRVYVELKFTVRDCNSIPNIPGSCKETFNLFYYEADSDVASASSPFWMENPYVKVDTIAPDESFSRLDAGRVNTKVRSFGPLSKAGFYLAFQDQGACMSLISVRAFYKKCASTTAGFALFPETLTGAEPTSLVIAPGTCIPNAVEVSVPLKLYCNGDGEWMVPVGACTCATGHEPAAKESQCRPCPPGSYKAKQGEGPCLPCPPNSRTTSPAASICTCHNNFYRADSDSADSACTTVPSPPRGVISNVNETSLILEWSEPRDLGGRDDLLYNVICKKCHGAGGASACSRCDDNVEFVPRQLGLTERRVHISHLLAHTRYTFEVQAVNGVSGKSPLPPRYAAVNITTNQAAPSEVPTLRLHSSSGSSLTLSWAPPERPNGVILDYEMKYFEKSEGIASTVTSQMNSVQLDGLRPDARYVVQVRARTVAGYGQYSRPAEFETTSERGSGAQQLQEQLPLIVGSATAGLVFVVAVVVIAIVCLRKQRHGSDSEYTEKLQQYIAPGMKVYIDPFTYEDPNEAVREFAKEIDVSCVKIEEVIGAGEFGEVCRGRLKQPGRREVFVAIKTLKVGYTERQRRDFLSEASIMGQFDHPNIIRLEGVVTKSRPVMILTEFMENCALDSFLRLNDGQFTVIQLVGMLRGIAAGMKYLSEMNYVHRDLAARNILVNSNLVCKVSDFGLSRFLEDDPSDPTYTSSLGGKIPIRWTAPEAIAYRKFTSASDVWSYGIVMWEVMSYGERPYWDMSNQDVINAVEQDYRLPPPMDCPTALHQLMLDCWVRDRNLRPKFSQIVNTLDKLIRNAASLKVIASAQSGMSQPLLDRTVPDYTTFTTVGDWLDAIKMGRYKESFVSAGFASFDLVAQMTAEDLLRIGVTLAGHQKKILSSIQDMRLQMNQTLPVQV
HIPK2, sequence (Q9H2X6 whole entry): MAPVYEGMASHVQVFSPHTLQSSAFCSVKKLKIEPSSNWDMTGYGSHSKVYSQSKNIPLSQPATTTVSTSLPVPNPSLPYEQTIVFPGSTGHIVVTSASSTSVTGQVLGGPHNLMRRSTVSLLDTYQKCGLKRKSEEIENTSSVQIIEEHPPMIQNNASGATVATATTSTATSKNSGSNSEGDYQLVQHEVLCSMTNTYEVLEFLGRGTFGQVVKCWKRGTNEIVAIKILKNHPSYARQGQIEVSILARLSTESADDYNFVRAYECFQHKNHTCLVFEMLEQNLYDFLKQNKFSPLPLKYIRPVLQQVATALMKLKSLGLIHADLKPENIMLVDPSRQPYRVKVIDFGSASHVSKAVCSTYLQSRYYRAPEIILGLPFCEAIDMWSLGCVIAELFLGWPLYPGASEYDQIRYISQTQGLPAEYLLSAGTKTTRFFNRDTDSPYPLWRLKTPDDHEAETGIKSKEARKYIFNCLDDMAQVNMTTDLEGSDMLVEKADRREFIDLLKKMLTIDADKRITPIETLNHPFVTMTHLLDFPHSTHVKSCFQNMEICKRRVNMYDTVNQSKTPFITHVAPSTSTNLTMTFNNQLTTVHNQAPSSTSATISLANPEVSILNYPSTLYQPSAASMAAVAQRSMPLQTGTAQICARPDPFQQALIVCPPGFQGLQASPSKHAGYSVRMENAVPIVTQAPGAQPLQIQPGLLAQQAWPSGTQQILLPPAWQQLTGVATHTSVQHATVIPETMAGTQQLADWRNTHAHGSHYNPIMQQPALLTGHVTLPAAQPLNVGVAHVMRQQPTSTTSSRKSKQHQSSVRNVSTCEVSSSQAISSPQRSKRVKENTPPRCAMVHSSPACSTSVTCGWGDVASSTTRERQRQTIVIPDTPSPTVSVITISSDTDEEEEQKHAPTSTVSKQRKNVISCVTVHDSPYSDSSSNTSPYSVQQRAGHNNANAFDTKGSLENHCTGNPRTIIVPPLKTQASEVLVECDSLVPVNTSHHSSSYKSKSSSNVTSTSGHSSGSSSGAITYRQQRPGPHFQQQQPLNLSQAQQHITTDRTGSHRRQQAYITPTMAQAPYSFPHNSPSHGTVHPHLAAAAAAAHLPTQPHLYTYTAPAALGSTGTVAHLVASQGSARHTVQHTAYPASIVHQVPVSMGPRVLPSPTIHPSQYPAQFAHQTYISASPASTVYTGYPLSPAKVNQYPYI
BRSK1, sequence (Q8TDC3 whole entry): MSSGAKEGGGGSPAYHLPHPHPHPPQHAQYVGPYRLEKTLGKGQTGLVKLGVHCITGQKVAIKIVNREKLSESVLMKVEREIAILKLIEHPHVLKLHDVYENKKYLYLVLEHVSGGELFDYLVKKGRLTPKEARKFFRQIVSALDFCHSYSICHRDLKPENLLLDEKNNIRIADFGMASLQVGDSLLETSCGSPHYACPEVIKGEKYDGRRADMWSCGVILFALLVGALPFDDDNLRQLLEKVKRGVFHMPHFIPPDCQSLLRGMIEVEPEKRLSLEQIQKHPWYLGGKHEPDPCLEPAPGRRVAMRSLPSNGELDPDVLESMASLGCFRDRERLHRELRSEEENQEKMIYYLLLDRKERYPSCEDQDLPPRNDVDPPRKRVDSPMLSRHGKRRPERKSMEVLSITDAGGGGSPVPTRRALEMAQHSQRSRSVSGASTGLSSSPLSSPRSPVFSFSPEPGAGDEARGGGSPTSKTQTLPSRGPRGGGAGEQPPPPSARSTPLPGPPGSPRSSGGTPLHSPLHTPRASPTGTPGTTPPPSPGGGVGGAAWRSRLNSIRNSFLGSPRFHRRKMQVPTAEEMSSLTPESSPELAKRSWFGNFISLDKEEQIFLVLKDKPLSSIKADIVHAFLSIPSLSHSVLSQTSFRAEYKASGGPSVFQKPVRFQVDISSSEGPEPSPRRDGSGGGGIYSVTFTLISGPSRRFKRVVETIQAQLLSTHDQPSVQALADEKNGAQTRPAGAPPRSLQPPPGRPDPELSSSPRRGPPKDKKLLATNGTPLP
DDR2, sequence (Q16832 22-855): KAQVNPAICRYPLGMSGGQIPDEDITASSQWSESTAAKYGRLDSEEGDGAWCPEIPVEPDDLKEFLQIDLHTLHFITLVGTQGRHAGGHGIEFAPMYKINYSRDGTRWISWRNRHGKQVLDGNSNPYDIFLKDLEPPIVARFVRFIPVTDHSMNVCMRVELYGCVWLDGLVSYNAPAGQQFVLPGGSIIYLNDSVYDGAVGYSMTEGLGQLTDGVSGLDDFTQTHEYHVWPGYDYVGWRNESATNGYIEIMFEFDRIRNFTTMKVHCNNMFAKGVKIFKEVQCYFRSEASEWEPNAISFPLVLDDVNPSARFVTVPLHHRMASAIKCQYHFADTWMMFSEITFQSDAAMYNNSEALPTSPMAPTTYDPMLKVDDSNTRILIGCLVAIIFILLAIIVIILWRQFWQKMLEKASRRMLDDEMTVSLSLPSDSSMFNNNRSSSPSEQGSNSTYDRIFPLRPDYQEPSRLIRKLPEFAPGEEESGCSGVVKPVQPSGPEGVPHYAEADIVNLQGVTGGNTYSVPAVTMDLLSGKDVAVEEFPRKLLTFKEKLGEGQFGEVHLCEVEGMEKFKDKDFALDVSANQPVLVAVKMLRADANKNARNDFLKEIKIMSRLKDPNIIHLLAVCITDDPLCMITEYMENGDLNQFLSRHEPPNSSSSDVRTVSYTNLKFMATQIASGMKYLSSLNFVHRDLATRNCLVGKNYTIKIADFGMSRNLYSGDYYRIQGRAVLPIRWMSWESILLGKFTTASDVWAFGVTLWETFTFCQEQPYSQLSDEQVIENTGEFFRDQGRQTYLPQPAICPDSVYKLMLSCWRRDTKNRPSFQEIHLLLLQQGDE
MAPKAP-K3, sequence (Q16644 whole entry): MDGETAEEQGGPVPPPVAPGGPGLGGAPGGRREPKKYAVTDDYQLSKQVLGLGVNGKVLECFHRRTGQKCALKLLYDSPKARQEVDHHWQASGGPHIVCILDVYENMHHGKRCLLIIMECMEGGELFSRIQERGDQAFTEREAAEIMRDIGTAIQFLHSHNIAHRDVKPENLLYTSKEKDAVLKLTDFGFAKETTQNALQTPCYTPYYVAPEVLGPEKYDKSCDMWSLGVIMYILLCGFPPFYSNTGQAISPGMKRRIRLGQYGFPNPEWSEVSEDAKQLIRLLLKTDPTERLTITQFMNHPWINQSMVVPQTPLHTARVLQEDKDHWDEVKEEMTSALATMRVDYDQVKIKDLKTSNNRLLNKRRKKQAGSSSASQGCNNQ
GCK, sequence (Q12851 whole entry): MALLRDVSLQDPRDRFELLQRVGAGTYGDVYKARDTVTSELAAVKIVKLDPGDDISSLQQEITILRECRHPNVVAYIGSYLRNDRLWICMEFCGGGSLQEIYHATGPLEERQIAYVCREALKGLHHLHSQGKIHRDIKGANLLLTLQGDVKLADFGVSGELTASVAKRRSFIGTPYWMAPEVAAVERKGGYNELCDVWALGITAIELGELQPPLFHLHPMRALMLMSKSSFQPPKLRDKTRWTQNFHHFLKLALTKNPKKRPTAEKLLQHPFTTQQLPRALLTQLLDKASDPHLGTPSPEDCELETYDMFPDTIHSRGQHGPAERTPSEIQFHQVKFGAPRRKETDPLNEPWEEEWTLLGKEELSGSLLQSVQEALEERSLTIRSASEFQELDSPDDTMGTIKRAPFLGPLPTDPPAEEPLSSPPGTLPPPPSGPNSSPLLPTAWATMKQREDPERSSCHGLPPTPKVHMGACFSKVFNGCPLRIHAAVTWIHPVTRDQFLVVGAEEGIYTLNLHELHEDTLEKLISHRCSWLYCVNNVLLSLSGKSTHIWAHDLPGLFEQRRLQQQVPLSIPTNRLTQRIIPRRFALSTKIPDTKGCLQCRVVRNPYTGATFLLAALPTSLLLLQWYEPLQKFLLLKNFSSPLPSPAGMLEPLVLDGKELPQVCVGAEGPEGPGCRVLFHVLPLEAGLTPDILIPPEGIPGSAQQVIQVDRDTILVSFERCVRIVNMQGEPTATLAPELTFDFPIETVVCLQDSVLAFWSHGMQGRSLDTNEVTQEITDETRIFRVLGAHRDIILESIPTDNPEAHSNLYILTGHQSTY

Structure (SMILES) | inhibition of IL-4 induced STAT6 phosphorylation after inhibitor washout, JAK3 Cys905Ser knockin BMDMs [1] | activity remaining in the presence of the inhibitor: EPH-B3 (EPH-B3) | activity remaining in the presence of the inhibitor: IRR (IRR) | activity remaining in the presence of the inhibitor: RSK2 (RSK2) | activity remaining in the presence of the inhibitor: RSK1 (RSK1) | activity remaining in the presence of the inhibitor: Src (Src) | activity remaining in the presence of the inhibitor: NUAK1 (NUAK1) | activity remaining in the presence of the inhibitor: CDK9-Cyclin T1 (CDK9-Cyclin T1) | activity remaining in the presence of the inhibitor: BRK (BRK) | activity remaining in the presence of the inhibitor: p38g MAPK (p38g MAPK) | activity remaining in the presence of the inhibitor: MAPKAP-K3 (MAPKAP-K3) | activity remaining in the presence of the inhibitor: PDK1 (PDK1) | activity remaining in the presence of the inhibitor: DDR2 (DDR2) | activity remaining in the presence of the inhibitor: RIPK2 (RIPK2) | activity remaining in the presence of the inhibitor: MARK4 (MARK4) | activity remaining in the presence of the inhibitor: TTBK1 (TTBK1) | activity remaining in the presence of the inhibitor: GCK (GCK) | activity remaining in the presence of the inhibitor: SRPK1 (SRPK1) | activity remaining in the presence of the inhibitor: HIPK1 (HIPK1) | activity remaining in the presence of the inhibitor: CLK2 (CLK2) | other results
C=CC(=O)N1C[C@H](Nc2ncnc3[nH]ccc23)CC[C@@H]1C [PF-06651600, 1-((2S,5R)-5-((7H-Pyrrolo[2,3-d]pyrimidin-4-yl)amino)-2-methylpiperidin-1-yl)prop-2-en-1-one, reference compound] | not retained at any time post washout | – | – | – | – | – | – | – | – | – | – | – | – | – | – | – | – | – | – | – | –
C=CC(=O)Nc1cccc(CNc2nc(Nc3ccc(N4CCN(C)CC4)cc3OC)ncc2Cl)c1 [TL6-144] | complete loss of inhibition | 77 | 56 | 73 | 61 | 74 | 4 | 95 | 94 | 88 | 119 | 101 | 83 | 92 | 76 | 80 | 92 | 91 | 79 | 62 | activity remaining in the presence of the inhibitor: STK33 (STK33): 81; activity remaining in the presence of the inhibitor: TIE2 (TIE2): 87; activity remaining in the presence of the inhibitor: HIPK2 (HIPK2): 87; activity remaining in the presence of the inhibitor: IGF-1R (IGF-1R): 5; activity remaining in the presence of the inhibitor: EPH-B1 (EPH-B1): 85; activity remaining in the presence of the inhibitor: MELK (MELK): 69; activity remaining in the presence of the inhibitor: WNK1 (WNK1): 81; activity remaining in the presence of the inhibitor: BRSK1 (BRSK1): 103; activity remaining in the presence of the inhibitor: IKKb (IKKb): 100; activity remaining in the presence of the inhibitor: PDGFRA (PDGFRA): 67; activity remaining in the presence of the inhibitor: p38d MAPK (p38d MAPK): 94; activity remaining in the presence of the inhibitor: SmMLCK (SmMLCK): 62; activity remaining in the presence of the inhibitor: MKK2 (MKK2): 93; activity remaining in the presence of the inhibitor: PKCγ (PKCγ): 111; activity remaining in the presence of the inhibitor: MNK1 (MNK1): 105; activity remaining in the presence of the inhibitor: CK1δ (CK1δ): 83
C=CC(=O)Nc1cccc(CNc2nc(Nc3ccc(N4CCOCC4)cc3)ncc2Cl)c1 [TL8-52] | – | 73 | 75 | 53 | 60 | 53 | 3 | 80 | 94 | 93 | 62 | 86 | 76 | 71 | 28 | 100 | 21 | 97 | 96 | 29 | activity remaining in the presence of the inhibitor: STK33 (STK33): 94; activity remaining in the presence of the inhibitor: TIE2 (TIE2): 116; activity remaining in the presence of the inhibitor: HIPK2 (HIPK2): 97; activity remaining in the presence of the inhibitor: IGF-1R (IGF-1R): 24; activity remaining in the presence of the inhibitor: EPH-B1 (EPH-B1): 75; activity remaining in the presence of the inhibitor: MELK (MELK): 66; activity remaining in the presence of the inhibitor: WNK1 (WNK1): 112; activity remaining in the presence of the inhibitor: BRSK1 (BRSK1): 86; activity remaining in the presence of the inhibitor: IKKb (IKKb): 104; activity remaining in the presence of the inhibitor: PDGFRA (PDGFRA): 35; activity remaining in the presence of the inhibitor: p38d MAPK (p38d MAPK): 93; activity remaining in the presence of the inhibitor: SmMLCK (SmMLCK): 98; activity remaining in the presence of the inhibitor: MKK2 (MKK2): 63; activity remaining in the presence of the inhibitor: PKCγ (PKCγ): 109; activity remaining in the presence of the inhibitor: MNK1 (MNK1): 112; activity remaining in the presence of the inhibitor: CK1δ (CK1δ): 110
